Among the data in patent US20260308157A1, “Pyrrolopyrazine Compounds, Preparation Thereof and Therapeutic Uses Thereof” (Sanofi, priority 2023, published 2026) are IC50 values, retold here.

SMILES strings stand for the structures.

The target of assay [1] is T1, activated catalytic domain of protein ERK5 (Homo sapiens, UniProt Q13164).
T1 construct: purchased CarnaBiosciences #04-146
The experiment in a line: Cell-Free Assay of ERK5 Inhibition (Time-Resolved Forster Resonance Energy Transfer). It counts as biochemical. The settings on record: ERK5 4 nM, 1 mM ATP, 1 μM biotinylated 4EBP1 peptide, 30 min at 37° C.; TR-FRET; mean where repeated. The protocol:
(§1) Two assays were performed to assess the ERK5 inhibitory activity of compounds of the Examples, a cell-based assay and a cell-free biochemical assay. Where repeat measurements were taken, the value reported is a mean average.
Cell-Free Assay of ERK5 Inhibition
An assay was performed to measure the capacity of each compound to inhibit ERK5 enzymatic activity. Compound potency was evaluated by Time-Resolved Forster Resonance Energy Transfer (FRET system). The activated catalytic domain of protein ERK5 (CarnaBiosciences #04-146) was mixed at 4 nM with varying concentrations of compound and incubated for 30 minutes at room temperature. A mixture of 1 mM ATP and 1 μM biotinylated synthetic peptide was added (Biosyntan GmbH). This synthetic peptide represents amino acids 30-52 of Eukaryotic translation initiation factor 4E-binding protein 1 (see, e.g., the sequence under accession No. NP_004086.1) biotinylated at the N-terminus. After 30 minutes at 37° C., the peptide phosphorylation by ERK5 was measured by addition of FRET reagents consisting of 12.5 µg/ml Streptavidin-XL665, 1 nM Anti-P-4EBP1 antibody and 300 ng/ml Anti-rabbit-K antibody. Following 90 minutes at room temperature fluorescent signals were read on the Pherastar FSX multimod detector from BMG Labtech (Exc° 340 nm, Em1 620 nm, Em2 665 nm). The IC50 values represent the concentration of compound which inhibits the measurable fluorescence signal by […] as compared to the DMSO only control.
(In general: TR-FRET usually uses a lanthanide donor and a delayed reading to cut background.)

A further assay addresses T2, Cellular ERK5 Activity (Homo sapiens, UniProt Q13164).
T2 construct: MEF2-response-element luciferase reporter (pGreenFire1)
The experiment in a line: Inhibition of Cellular ERK5 Activity (cell-based assay, MEF2 luciferase reporter in SN12C cells). The settings on record: renal cancer cell line SN12C, doxycycline-induced MEK5DD, 0.3-10000 nM, mean where repeated. The protocol: as §1
Inhibition of Cellular ERK5 Activity
The renal cancer cell line SN12C was transduced by a lentivirus pGreenFire1 MEF2 EF1 Neo (ref TR030VA-N) from SBI using standard infection protocol. pGreenFire1 MEF2 EF1 Neo allows the expression of luciferase gene under the control of minimal promoter with MEF2 transcriptional response elements. Cells harboring the reporter construct were selected by geneticin treatment. The selected cells were then transposed by a piggyback based plasmid pCM4007 allowing the expression of constitutively activated MEK5DD under control of TREG3 promoter, a doxycycline regulated promoter. Transposed cells were selected by puromycin treatment. Upon doxycycline treatment (1 μg/ml) MEK5DD was expressed. MEK5DD activates ERK5 that phosphorylates MEF2C protein. Activated MEF2C protein can bind to its transcriptional response elements. Then the luciferase is expressed. In a 96-well plate (96F nuncleon ref137101 thermofisher), 50,000 cells were inoculated in 142.5 μl of RPMI medium containing 10% fetal calf serum, 1% glutamine, and 1 μg/ml doxycycline. After 24 hours, compounds were added in 7.5 μl culture medium (with 2% DMSO to give a final concentration of 0.1%) in order to obtain the desired concentration (0.3-10000 nM). The luciferase activity was measured using the Kit Bright Glo Luminescent Cell Assay Cat E2610 (Promega) according to the manufacturer's protocol. Luminescence was determined using 0.2 second reading/well using a Tecan SPARK. IC50 values were calculated using XLFIT5 for Microsoft Excel using method 205. The IC50 values represent the concentration of compound which inhibits the measurable luminescence signal by 50% as compared to DMSO-treated control cells.
A general note: In a reporter assay the amount or activity of a reporter protein is the signal.

T1 sequence (Q13164 55-347 limits assumed): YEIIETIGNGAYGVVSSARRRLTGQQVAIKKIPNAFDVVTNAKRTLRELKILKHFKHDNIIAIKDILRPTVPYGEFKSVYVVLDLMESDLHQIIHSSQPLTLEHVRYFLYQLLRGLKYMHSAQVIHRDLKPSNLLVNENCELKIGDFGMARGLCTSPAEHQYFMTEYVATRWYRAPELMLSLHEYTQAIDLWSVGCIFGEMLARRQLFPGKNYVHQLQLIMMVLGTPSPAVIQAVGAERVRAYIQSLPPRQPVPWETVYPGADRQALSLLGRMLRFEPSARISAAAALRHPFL
T2 sequence (Q13164 whole entry): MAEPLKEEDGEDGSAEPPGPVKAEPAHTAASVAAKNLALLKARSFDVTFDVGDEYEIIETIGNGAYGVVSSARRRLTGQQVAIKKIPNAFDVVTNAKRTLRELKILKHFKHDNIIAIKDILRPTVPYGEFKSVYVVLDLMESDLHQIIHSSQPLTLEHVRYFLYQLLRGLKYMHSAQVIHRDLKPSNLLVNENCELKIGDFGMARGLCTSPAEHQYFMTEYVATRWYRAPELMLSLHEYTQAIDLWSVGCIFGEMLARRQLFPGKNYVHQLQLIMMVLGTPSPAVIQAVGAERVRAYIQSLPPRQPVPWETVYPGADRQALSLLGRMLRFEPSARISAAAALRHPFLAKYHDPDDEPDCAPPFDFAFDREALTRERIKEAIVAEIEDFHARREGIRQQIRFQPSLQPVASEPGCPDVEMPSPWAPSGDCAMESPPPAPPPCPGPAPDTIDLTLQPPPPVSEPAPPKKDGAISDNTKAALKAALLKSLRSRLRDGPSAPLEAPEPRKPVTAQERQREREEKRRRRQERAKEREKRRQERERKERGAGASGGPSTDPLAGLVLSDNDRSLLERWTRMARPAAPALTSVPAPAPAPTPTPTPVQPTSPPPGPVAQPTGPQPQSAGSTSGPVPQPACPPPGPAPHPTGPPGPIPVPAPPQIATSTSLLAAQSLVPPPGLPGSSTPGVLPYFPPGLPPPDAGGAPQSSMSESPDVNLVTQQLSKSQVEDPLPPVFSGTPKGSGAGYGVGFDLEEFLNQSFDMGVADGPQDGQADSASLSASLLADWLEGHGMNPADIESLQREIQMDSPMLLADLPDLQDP

Usually IC50 stands for the concentration that inhibits the measured activity by half. Low readings indicate greater potency, high ones weaker potency. On to `O=C(c1ccc(OC(F)(F)F)cc1)N1CCC(c2c[nH]c3ncc(C4CCCCC4)nc23)CC1` [Example 8, [4-(2-Cyclohexyl-5H-pyrrolo[2,3-b]pyrazin-7-yl)-1-piperidyl]-[4-(trifluoromethoxy)phenyl]methanone], for which the figures for the IC50 (in assay [1]; against Cellular ERK5 Activity) were 25900 nM and 226 nM, respectively.

For the compound `Nc1cc(OC(F)(F)F)ccc1C(=O)N1CCC(c2c[nH]c3ncc(C4CCCCC4)nc23)CC1` [Example 9, [2-Amino-4-(trifluoromethoxy)phenyl]-[4-(2-cyclohexyl-5H-pyrrolo[2,3-b]pyrazin-7-yl)-1-piperidyl]methanone], the figures for the IC50 (in assay [1]; on Cellular ERK5 Activity) were 2150 nM and 156 nM, respectively.

For `Nc1cc(OC(F)(F)F)ccc1C(=O)N1CCC(c2c[nH]c3ncc(C4CCN(C5CC5)CC4)nc23)CC1` [Example 10, [2-Amino-4-(trifluoromethoxy)phenyl]-[4-[2-(1-cyclopropyl-4-piperidyl)-5H-pyrrolo[2,3-b]pyrazin-7-yl]-1-piperidyl]methanone], the concentration for half-maximal inhibition (IC50) in assay [1] is 23 nM; against Cellular ERK5 Activity it was 28 nM.

For `O=C(c1ccc(OC(F)(F)F)cc1)N1CCC(c2c[nH]c3ncc(C4CCN(C5CC5)CC4)nc23)CC1` [Example 11, [4-[2-(1-Cyclopropyl-4-piperidyl)-5H-pyrrolo[2,3-b]pyrazin-7-yl]-1-piperidyl]-[4-(trifluoromethoxy)phenyl]methanone], the IC50 in assay [1] came out at 76 nM; against Cellular ERK5 Activity, 112 nM.

`CN1CCC(c2cnc3[nH]cc(C4CCN(C(=O)c5ccc(S(F)(F)(F)(F)F)cc5)CC4)c3n2)CC1` [Example 15, [4-[2-(1-Methyl-4-piperidyl)-5H-pyrrolo[2,3-b]pyrazin-7-yl]-1-piperidyl]-[4-(pentafluoro-λ^6-sulfanyl)phenyl]methanone]: the IC50 in assay [1] worked out at 98 nM; against Cellular ERK5 Activity it was 96 nM.

In the case of `CN1CCC(c2cnc3[nH]cc(C4CCN(C(=O)c5ccc(S(F)(F)(F)(F)F)cc5N)CC4)c3n2)CC1` [Example 16, [2-Amino-4-(pentafluoro-λ^6-sulfanyl)phenyl]-[4-[2-(1-methyl-4-piperidyl)-5H-pyrrolo[2,3-b]pyrazin-7-yl]-1-piperidyl]methanone], the IC50 came to 38 nM in assay [1] and 25 nM against Cellular ERK5 Activity.

Regarding `O=C(c1ccc(S(F)(F)(F)(F)F)cc1)N1CCC(c2c[nH]c3ncc(C4CCOCC4)nc23)CC1` [Example 17, [4-(pentafluoro-λ^6-sulfanyl)phenyl]-[4-(2-tetrahydropyran-4-yl-5H-pyrrolo[2,3-b]pyrazin-7-yl)-1-piperidyl]methanone], the IC50 worked out at 578 nM in assay [1] and 140 nM at Cellular ERK5 Activity.

Turning to `Nc1cc(S(F)(F)(F)(F)F)ccc1C(=O)N1CCC(c2c[nH]c3ncc(C4CCOCC4)nc23)CC1` [Example 18, [2-Amino-4-(pentafluoro-λ^6-sulfanyl)phenyl]-[4-(2-tetrahydropyran-4-yl-5H-pyrrolo[2,3-b]pyrazin-7-yl)-1-piperidyl]methanone], the IC50 was found to be 330 nM in assay [1] and 34 nM against Cellular ERK5 Activity.

On to `Nc1cc(S(F)(F)(F)(F)F)ccc1C(=O)N1CCC(c2c[nH]c3ncc(C4CCN(C5CC5)CC4)nc23)CC1` [Example 19, [2-Amino-4-(pentafluoro-λ^6-sulfanyl)phenyl]-[4-[2-(1-cyclopropyl-4-piperidyl)-5H-pyrrolo[2,3-b]pyrazin-7-yl]-1-piperidyl]methanone], for which the IC50 stood at 176 nM in assay [1] and 94 nM at Cellular ERK5 Activity.

On to `O=C(c1ccc(S(F)(F)(F)(F)F)cc1)N1CCC(c2c[nH]c3ncc(C4CCN(C5CC5)CC4)nc23)CC1` [Example 20, [4-[2-(1-Cyclopropyl-4-piperidyl)-5H-pyrrolo[2,3-b]pyrazin-7-yl]-1-piperidyl]-[4-(pentafluoro-λ^6-sulfanyl)phenyl]methanone], for which the IC50 in assay [1] is 282 nM; against Cellular ERK5 Activity, 201 nM.

Turning to `O=C(c1ccc(OC2CC2)cc1)N1CCC(c2c[nH]c3ncc(C4CCOCC4)nc23)CC1` [Example 21, [4-(Cyclopropoxy)phenyl]-[4-(2-tetrahydropyran-4-yl-5H-pyrrolo[2,3-b]pyrazin-7-yl)-1-piperidyl]methanone], the IC50 in assay [1] was determined as 359 nM; against Cellular ERK5 Activity, 352 nM.

Take `O=C(c1ccc(C(F)(F)C(F)(F)F)cc1)N1CCC(c2c[nH]c3ncc(C4CCOCC4)nc23)CC1` [Example 22, [4-(1,1,2,2,2-Pentafluoroethyl)phenyl]-[4-(2-tetrahydropyran-4-yl-5H-pyrrolo[2,3-b]pyrazin-7-yl)-1-piperidyl]methanone]: the IC50 amounted to 1140 nM in assay [1] and 279 nM against Cellular ERK5 Activity.

With `O=C(C1CCCCC1)N1CCC(c2c[nH]c3ncc(C4CCOCC4)nc23)CC1` [Example 23, Cyclohexyl-[4-(2-tetrahydropyran-4-yl-5H-pyrrolo[2,3-b]pyrazin-7-yl)-1-piperidyl]methanone], the IC50 in assay [1] stood at 13300 nM; at Cellular ERK5 Activity it was 4800 nM.

Regarding `O=C(c1ccc(S(F)(F)(F)(F)F)cc1F)N1CCC(c2c[nH]c3ncc(C4CCOCC4)nc23)CC1` [Example 26, [2-Fluoro-4-(pentafluoro-λ^6-sulfanyl)phenyl]-[4-(2-tetrahydropyran-4-yl-5H-pyrrolo[2,3-b]pyrazin-7-yl)-1-piperidyl]methanone], the values for the IC50 (in assay [1]; at Cellular ERK5 Activity) were 624 nM and 149 nM, respectively.

In the case of `Nc1cc(OC(F)(F)F)ccc1C(=O)N1CCC(c2c[nH]c3ncc(NC4COC4)nc23)CC1` [Example 27, [2-amino-4-(trifluoromethoxy)phenyl]-[4-[2-(oxetan-3-ylamino)-5H-pyrrolo[2,3-b]pyrazin-7-yl]-1-piperidyl]methanone], the IC50 in assay [1] came out at 5560 nM; on Cellular ERK5 Activity, 5430 nM.

With `Nc1cc(OC(F)(F)F)ccc1C(=O)N1CCC(c2c[nH]c3ncc(O[C@@H]4CCOC4)nc23)CC1` [Example 28, [2-amino-4-(trifluoromethoxy)phenyl]-[4-[2-[(3R)-tetrahydrofuran-3-yl]oxy-5H-pyrrolo[2,3-b]pyrazin-7-yl]-1-piperidyl]methanone], the values for the IC50 (in assay [1]; at Cellular ERK5 Activity) were 405 nM and 190 nM, respectively.

In the case of `Nc1cc(OC(F)(F)F)ccc1C(=O)N1CCC(c2c[nH]c3ncc(O[C@H]4CCOC4)nc23)CC1` [Example 29, [2-amino-4-(trifluoromethoxy)phenyl]-[4-[2-[(3S)-tetrahydrofuran-3-yl]oxy-5H-pyrrolo[2,3-b]pyrazin-7-yl]-1-piperidyl]methanone], the figures for the IC50 (in assay [1]; against Cellular ERK5 Activity) were 399 nM and 215 nM, respectively.

Regarding `CN1CCN(c2cnc3[nH]cc(C4CCN(C(=O)c5ccc(OC(F)(F)F)cc5)CC4)c3n2)CC1` [Example 31, [4-[2-(4-methylpiperazin-1-yl)-5H-pyrrolo[2,3-b]pyrazin-7-yl]-1-piperidyl]-[4-(trifluoromethoxy)phenyl]methanone, formic acid], the values for the half-maximal inhibitory concentration (IC50) (in assay [1]; against Cellular ERK5 Activity) were 189 nM and 86 nM, respectively.

Regarding `O=C(c1ccc(OC(F)(F)F)cc1)N1CCC(c2c[nH]c3ncc(NC4CCOCC4)nc23)CC1` [Example 38, [4-[2-(tetrahydropyran-4-ylamino)-5H-pyrrolo[2,3-b]pyrazin-7-yl]-1-piperidyl]-[4-(trifluoromethoxy)phenyl]methanone], the IC50 in assay [1] turned out to be 993 nM; against Cellular ERK5 Activity, 166 nM.

In the case of `Nc1cc(OC(F)(F)F)ccc1C(=O)N1CCC(c2c[nH]c3ncc(NC4CCOCC4)nc23)CC1` [Example 39, [2-amino-4-(trifluoromethoxy)phenyl]-[4-[2-(tetrahydropyran-4-ylamino)-5H-pyrrolo[2,3-b]pyrazin-7-yl]-1-piperidyl]methanone], the figures for the IC50 (in assay [1]; at Cellular ERK5 Activity) were 307 nM and 37 nM, respectively.

`O=C(c1ccc(OC(F)(F)F)cc1)N1CCC(c2c[nH]c3ncc(N4CCOCC4)nc23)CC1` [Example 40, [4-(2-morpholino-5H-pyrrolo[2,3-b]pyrazin-7-yl)-1-piperidyl]-[4-(trifluoromethoxy)phenyl]methanone]: the IC50 in assay [1] came to 1010 nM; on Cellular ERK5 Activity, 180 nM.
